From ChEMBL document CHEMBL1144180, “Phenylethyl cinnamides: a new series of alpha-glucosidase inhibitors from the leaves of Aegle marmelos” (Bioorg Med Chem Lett, 2008) come the findings set out here.

The source made the active and inactive calls. The rule behind the calls is not given here.

Assay [1] in a line: Inhibition of alpha-glucosidase at 10.0 ug/ml.
Assay [2] in a line: Inhibition of alpha-glucosidase at 5.0 ug/ml.
Assay [3] can be described thus: Inhibition of alpha-glucosidase at 2.5 ug/ml.
A short description of assay [4]: Inhibition of alpha-glucosidase at 1.25 ug/ml.
Assay [5] can be described thus: Inhibition of alpha-glucosidase.

As a reminder, the inhibition is the relative decrease from the control value, in per cent. Usually IC50 stands for the midpoint of a concentration-inhibition curve. As to `COc1ccc(/C=C/NC(=O)/C=C/c2ccccc2)cc1` [ANHYDROAEGELINE], the inhibition worked out at 56.5% in assay [1], 25.2% in assay [2], 7.5% in assay [3] and 1.7% in assay [4]. In assay [5], this compound gave an IC50 of 35.8 µM.

With `COc1ccc([C@H](O)CNC(=O)/C=C/c2ccccc2)cc1`, the inhibition in assay [1] was found to be 36%; in assay [2] it was 20.9%; in assay [3], 11.2%; in assay [4], 5.3%.

Consider `COc1ccc([C@H](O)CNC(=O)c2ccccc2)cc1`, for which the inhibition in assay [1] was 13.5%; in assay [2] it was 11.4%; in assay [3], 7.8%; in assay [4] it was 1.5%.

For the compound `CC(C)=CCOc1ccc(/C=C/NC(=O)/C=C/c2ccccc2)cc1`, the inhibition in assay [1] was found to be 30.1%; in assay [2], 13.2%; in assay [3], 8.1%; in assay [4], 1.3%.

`COc1ccc([C@@H](CNC(=O)/C=C/c2ccccc2)OC)cc1` displayed an inhibition in assay [1] of 12.6%. The outcome in assay [2], in assay [3] and in assay [4] was inactive.

Consider `COc1ccc([C@@H](CNC(=O)/C=C\c2ccccc2)O[C@@H]2O[C@H](CO)[C@@H](O)[C@H](O)[C@H]2O)cc1`, for which the inhibition came out at 8.8% in assay [1] and 3.4% in assay [2]. In addition, the outcome in assay [3] and in assay [4] was inactive.

For `CC(C)=CCOc1ccc(CCNC(=O)/C=C/c2ccccc2)cc1`, the inhibition in assay [1] is 19.7%; in assay [2], 15.9%. Further, the outcome in assay [3] and in assay [4] was inactive.

Turning to `COc1ccc([C@@H](CNC(=O)/C=C/c2ccccc2)O[C@@H]2O[C@H](CO)[C@@H](O)[C@H](O)[C@H]2O)cc1`, the inhibition in assay [1] came to 17.6%; in assay [2], 11.6%; in assay [3], 6.1%; in assay [4], 4.6%.
